{"source": "patent US20090012067A1", "about": "“Modulation of Hypothalamic Atp-Sensitive Potassium Channels” (priority 2005, published 2009)", "key": {"G6Pase": {"test_system": "G6Pase", "assay": "liver G6Pase mRNA by real-time PCR after the infusions", "format": "in vivo, Sprague-Dawley rats", "from_the_text": "(§1) Gene expression. Gluconeogenic enzymes. Quantitative analysis of gene expression was done using RT-PCR. Total RNA was isolated with Trizol (Invitrogen) and single-strand cDNA was synthesized with a kit provided by Invitrogen. Real-time PCR reactions and the primers for G6Pase and PEPCK were done as described (Pocai et al., in press). The copy number of each transcript was derived from a standard curve of cloned target templates. Expression of each transcript was normalized to copy number for 18s ribosomal protein."}, "[1]": {"test_system": "hypothalamic KATP channels", "assay": "central infusion in rats on a high fat diet for three days (hepatic insulin resistance), glucose production", "format": "in vivo", "conditions": "plasma insulin 20 μU/ml", "method": "Additional experiments were also performed in rats maintained on a high fat diet regimen for three days."}, "PEPCK": {"test_system": "PEPCK", "assay": "liver PEPCK mRNA by real-time PCR after the infusions", "format": "in vivo, Sprague-Dawley rats", "from_the_text": "as §1"}, "central KATP channels": {"test_system": "central KATP channels", "assay": "ICV infusion of diazoxide with pancreatic-insulin clamp (1 mU/kg·min) in conscious rats", "format": "in vivo, Sprague-Dawley rats", "from_the_text": "(§2) Animal preparation for the in vivo experiments. Rats. Eighty-nine 10-week-old male Sprague-Dawley rats (Charles River Breeding Laboratories, Wilmington, Mass.) were studied. Rats were housed in individual cages and subjected to a standard light-dark cycle. Three weeks prior to the in vivo studies, chronic catheters were implanted in the third cerebral ventricle (Obici et al., 2003; Liu et al., 1998) or intrahypothalamically (Morton et al., 2003) (IH) by stereotaxic surgery. One week before the pancreatic-insulin clamp protocols, rats received additional catheters in the right internal jugular and left carotid artery (FIG. 5) (Obici et al., 2003; Liu et al., 1998). In vivo studies. For the studies in rats, the metabolic experiments were performed ˜3 weeks after stereotaxic surgery following complete recovery from the operation (FIG. 5). All solutions were diluted with artificial cerebral spinal fluid (aCSF). […] Pancreatic-insulin clamp studies were performed as previously described (Liu et al., 1998). Euglycemic-hyperinsulinemic clamps in conscious, unrestrained, catheterized mice were performed for 90 min as previously described (Obici et al., 2003; Liu et al., 1998). Hepatic glucose fluxes. Rate of hepatic glucose fluxes was determined as described. Barzilai et al., 1997)."}, "[2]": {"test_system": "KATP channels within the medial hypothalamus", "assay": "Intrahypothalamic (IH) infusion of diazoxide or insulin with pancreatic-insulin clamp", "format": "in vivo, Sprague-Dawley rats", "conditions": "for rate of glucose infusion required to prevent hypoglycemia: IH infusion during a pancreatic clamp, vs vehicle; for blood glucose levels / GP (glucose production): IH infusion; for blood glucose levels: bilateral, medial hypothalamus, total dose insulin 2 μU; for GP (glucose production): basal circulating insulin", "from_the_text": "as §2, with “1998).” for “1998). Hepatic glucose fluxes. Rate of hepatic glucose fluxes was determined as described. Barzilai et al., 1997).”"}, "[3]": {"test_system": "hypothalamic KATP channels", "assay": "ICV infusion of insulin, KATP channel blocker (glibenclamide) or both with pancreatic-insulin clamp (1 mU/kg·min)", "format": "in vivo, Sprague-Dawley rats", "conditions": "for Direct: ICV infusion, direct pathway; for glucose infusion needed to prevent hypoglycemia: near basal circulating insulin levels", "from_the_text": "Animal preparation for the in vivo experiments. Rats. Eighty-nine 10-week-old male Sprague-Dawley rats (Charles River Breeding Laboratories, Wilmington, Mass.) were studied. Rats were housed in individual cages and subjected to a standard light-dark cycle. Three weeks prior to the in vivo studies, chronic catheters were implanted in the third cerebral ventricle (Obici et al., 2003; Liu et al., 1998) or intrahypothalamically (Morton et al., 2003) (IH) by stereotaxic surgery. […] In vivo studies. For the studies in rats, the metabolic experiments were performed ˜3 weeks after stereotaxic surgery following complete recovery from the operation (FIG. 5). All solutions were diluted with artificial cerebral spinal fluid (aCSF). […] Euglycemic-hyperinsulinemic clamps in conscious, unrestrained, catheterized mice were performed for 90 min as previously described (Obici et al., 2003; Liu et al., 1998). Hepatic glucose fluxes. Rate of hepatic glucose fluxes was determined as described. Barzilai et al., 1997)."}, "[4]": {"molecular_target": "T1, hypothalamic insulin receptors (Rattus norvegicus, UniProt P15127)", "T1 construct": "Paired groups of SHAM and HV rats received an ICV infusion of either insulin or vehicle; from tissue; host or cells: CNS / hypothalamus of living Sprague-Dawley rats (ICV infusion)", "T1 sequence (P15127 27-759 limits assumed)": "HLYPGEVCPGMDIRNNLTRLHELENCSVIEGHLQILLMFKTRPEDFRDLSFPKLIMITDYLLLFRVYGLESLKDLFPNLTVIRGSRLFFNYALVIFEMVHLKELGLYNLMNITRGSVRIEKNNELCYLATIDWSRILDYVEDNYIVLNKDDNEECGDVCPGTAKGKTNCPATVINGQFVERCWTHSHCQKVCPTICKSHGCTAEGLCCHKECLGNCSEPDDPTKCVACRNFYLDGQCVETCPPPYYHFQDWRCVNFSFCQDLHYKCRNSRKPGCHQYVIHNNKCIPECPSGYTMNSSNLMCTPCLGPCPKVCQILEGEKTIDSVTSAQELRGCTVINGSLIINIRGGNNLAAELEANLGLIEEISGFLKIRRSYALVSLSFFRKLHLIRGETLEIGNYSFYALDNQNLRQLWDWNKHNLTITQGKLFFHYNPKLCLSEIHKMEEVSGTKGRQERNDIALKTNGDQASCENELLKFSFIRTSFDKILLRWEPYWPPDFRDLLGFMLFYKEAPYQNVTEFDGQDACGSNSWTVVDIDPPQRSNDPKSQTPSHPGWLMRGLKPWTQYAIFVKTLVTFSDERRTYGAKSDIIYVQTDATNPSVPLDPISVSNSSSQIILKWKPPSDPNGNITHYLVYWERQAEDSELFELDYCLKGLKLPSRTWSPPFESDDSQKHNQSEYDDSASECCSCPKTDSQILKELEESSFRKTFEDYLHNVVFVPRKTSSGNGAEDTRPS", "T1 sequence (P15127 764-1383 partner limits assumed)": "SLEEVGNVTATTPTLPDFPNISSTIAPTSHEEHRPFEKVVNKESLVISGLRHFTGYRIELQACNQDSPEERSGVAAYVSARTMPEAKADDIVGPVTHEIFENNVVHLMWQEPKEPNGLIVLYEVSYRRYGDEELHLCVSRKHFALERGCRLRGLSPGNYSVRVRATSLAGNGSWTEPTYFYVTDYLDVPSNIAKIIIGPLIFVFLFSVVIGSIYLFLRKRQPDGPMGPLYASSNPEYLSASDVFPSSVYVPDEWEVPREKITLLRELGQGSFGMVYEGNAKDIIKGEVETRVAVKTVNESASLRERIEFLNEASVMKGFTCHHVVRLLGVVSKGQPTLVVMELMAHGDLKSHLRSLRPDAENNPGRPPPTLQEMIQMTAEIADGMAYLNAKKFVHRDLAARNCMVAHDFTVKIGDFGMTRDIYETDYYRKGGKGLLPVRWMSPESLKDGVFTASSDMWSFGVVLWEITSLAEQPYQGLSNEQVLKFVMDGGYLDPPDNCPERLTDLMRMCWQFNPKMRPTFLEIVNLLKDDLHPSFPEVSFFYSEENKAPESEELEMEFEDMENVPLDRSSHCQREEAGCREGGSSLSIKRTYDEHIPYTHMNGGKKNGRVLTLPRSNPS", "assay": "ICV insulin in rats with hepatic branch vagotomy (HV), sham operation or vagal deafferentation, pancreatic-insulin clamp (1 mU/kg·min)", "format": "in vivo, Sprague-Dawley rats", "from_the_text": "Animal preparation for the in vivo experiments. Rats. Eighty-nine 10-week-old male Sprague-Dawley rats (Charles River Breeding Laboratories, Wilmington, Mass.) were studied. Rats were housed in individual cages and subjected to a standard light-dark cycle. Three weeks prior to the in vivo studies, chronic catheters were implanted in the third cerebral ventricle (Obici et al., 2003; Liu et al., 1998) or intrahypothalamically (Morton et al., 2003) (IH) by stereotaxic surgery.\n(§3) In vivo studies. For the studies in rats, the metabolic experiments were performed ˜3 weeks after stereotaxic surgery following complete recovery from the operation (FIG. 5). All solutions were diluted with artificial cerebral spinal fluid (aCSF). […] Euglycemic-hyperinsulinemic clamps in conscious, unrestrained, catheterized mice were performed for 90 min as previously described (Obici et al., 2003; Liu et al., 1998).\n(§4) Selective hepatic branch vagotomy. One week before the clamp procedure a subgroup of rats underwent selective hepatic vagotomy (HV) or sham operation (SHAM). Anatomical nerve transactions was verified in each rat at sacrifice by microscopic observation of the absence of vagal nerve fibers in between the two silk sutures that had been placed along the trunk at the time of transection (la Fleur et al., 2003).\nSelective vagal deafferentation. Nerve transection was performed as previously described, according to the methods of Norgren and Smith (Norgren & Smith, 1998).\n(§5) Hepatic glucose fluxes. Rate of hepatic glucose fluxes was determined as described. Barzilai et al., 1997)."}, "[5]": {"test_system": "hepatic glucose production", "assay": "pancreatic-hyperinsulinemic clamp (insulin 3 mU/kg·min) in SHAM and HV rats", "format": "in vivo, Sprague-Dawley rats", "conditions": "for suppression of GP (glucose production): hyperinsulinemia ~3-fold over basal; for Direct / % Indirect: systemic insulin (3 mU); for Direct: direct pathway; for % Indirect: indirect pathway", "method": "Panel A is a schematic representation of the pancreatic-hyperinsulinemic clamp procedure. At t=120 an infusion of labeled glucose was initiated and maintained for the remaining 4 hours of the study and a pancreatic hyperinsulinemic clamp was initiated at t=240 min and lasted for 2 hours. […] The figure is a longitudinal view of a rat brain, with olfactory bulb at the anterior end on the left and the caudal hindbrain on the right.\nas §3, §4, §5"}, "[6]": {"conditions": "ICV insulin with or without KATP channel blocker"}, "[7]": {"conditions": "selective vagal deafferentation, ability of central insulin not altered"}}, "data": [{"compound": "CC1=NS(=O)(=O)c2cc(Cl)ccc2N1", "note": "[diazoxide, reference compound]", "values": [{"measurement": "liver G6Pase mRNA levels", "setting": "G6Pase; ICV diazoxide study", "value": "markedly decreased"}, {"measurement": "inhibition of glucose production", "setting": "[1]; ICV or intrahypothalamic infusion", "value": "~45", "unit": "%"}, {"measurement": "liver PEPCK mRNA levels", "setting": "PEPCK; ICV diazoxide study", "value": "markedly decreased"}, {"measurement": "glucose cycling", "setting": "central KATP channels; ICV", "value": "significantly reduced"}, {"measurement": "in vivo flux through G6Pase", "setting": "central KATP channels; ICV", "value": "decreased the flux through G6Pase"}, {"measurement": "Direct", "setting": "central KATP channels; ICV infusion, direct pathway", "value": "14.37 ± 2.2", "unit": "%"}, {"measurement": "decrease in GP (glucose production)", "setting": "central KATP channels; ICV, 1.5 nmol, basal insulin levels (~20 μU/ml)", "value": "45±4", "unit": "%"}, {"measurement": "glucose infusion needed to prevent hypoglycemia", "setting": "central KATP channels; ICV, basal circulating insulin levels", "value": "glucose infusion was required to prevent hypoglycemia"}, {"measurement": "rate of glucose infusion required to prevent hypoglycemia", "setting": "[2]", "value": "significant increases"}, {"measurement": "blood glucose levels", "setting": "[2]", "value": "lowered blood glucose levels"}, {"measurement": "GP (glucose production)", "setting": "[2]", "value": "marked suppression of GP"}]}, {"compound": "COc1ccc(Cl)cc1C(=O)NCCc1ccc(S(=O)(=O)NC(=O)NC2CCCCC2)cc1", "note": "[glibenclamide, 5-Chloro-N-[2-[4-(3-cyclohexylureidosulfonyl)phenyl]-ethyl]-2-methoxybenzamide, reference compound]", "values": [{"measurement": "Direct", "setting": "[3]", "value": "18.5 ± 2.8", "unit": "%"}, {"measurement": "GP (glucose production)", "setting": "[3]; ICV, blocker alone or co-infused with insulin", "value": "did not per se affect GP"}, {"measurement": "glucose infusion needed to prevent hypoglycemia", "setting": "[3]; ICV", "value": "did not modify the rate of glucose infusion"}]}, {"compound": "insulin", "values": [{"measurement": "in vivo flux through G6Pase", "setting": "[3]; ICV", "value": "markedly decreased"}, {"measurement": "Direct", "setting": "[3]", "value": "12.1 ± 0.7", "unit": "%"}, {"measurement": "decrease in GP (glucose production)", "setting": "[3]; ICV insulin 30 μU, basal and equal insulin levels (~20 μU/ml)", "value": "52±8", "unit": "%"}, {"measurement": "glucose infusion needed to prevent hypoglycemia", "setting": "[3]; ICV", "value": "glucose infusion was required to prevent hypoglycemia"}, {"measurement": "rate of glucose disposal (uptake)", "setting": "[3]; ICV, pancreatic-insulin clamp", "value": "not significantly affected"}, {"measurement": "liver G6Pase mRNA levels", "setting": "G6Pase; [6]", "value": "marked KATP channels dependent decreases"}, {"measurement": "liver G6Pase mRNA levels", "setting": "G6Pase; SHAM, ICV insulin", "value": "marked decrease"}, {"measurement": "glucose production", "setting": "[1]; central administration", "value": "failed to significantly inhibit glucose production"}, {"measurement": "liver PEPCK mRNA levels", "setting": "PEPCK; HV, ICV insulin", "value": "not in HV rats"}, {"measurement": "liver PEPCK mRNA levels", "setting": "PEPCK; [6]", "value": "marked KATP channels dependent decreases"}, {"measurement": "liver PEPCK mRNA levels", "setting": "PEPCK; SHAM, ICV insulin", "value": "marked decrease"}, {"measurement": "^14C-PEP", "setting": "[4]; HV, ICV", "value": "5.5 ± 1.4", "unit": "dpm/nmol"}, {"measurement": "glucose infusion needed to prevent hypoglycemia", "setting": "[4]; HV, ICV insulin", "value": "not in the HV rats"}, {"measurement": "hepatic glucose fluxes", "setting": "[4]; HV, ICV insulin", "value": "failed to affect hepatic glucose fluxes"}, {"measurement": "^3H-Glucose Plasma SA", "setting": "[4]; SHAM, ICV", "value": "43.1 ± 1.9", "unit": "dpm/nmol"}, {"measurement": "^3H-UDPglucose Liver SA", "setting": "[4]; SHAM, ICV", "value": "5.5 ± 0.5", "unit": "dpm/nmol"}, {"measurement": "gluconeogenesis", "setting": "[4]; SHAM, ICV insulin", "value": "marked inhibition of gluconeogenesis"}, {"measurement": "glucose infusion needed to prevent hypoglycemia", "setting": "[4]; SHAM, ICV insulin", "value": "glucose infusion was required to prevent hypoglycemia"}, {"measurement": "in vivo flux through G6Pase", "setting": "[4]; SHAM, ICV insulin", "value": "markedly decreased"}, {"measurement": "Direct", "setting": "[4]; SHAM, ICV, direct pathway", "value": "12.1 ± 0.7", "unit": "%"}, {"measurement": "rate of glucose uptake", "setting": "[4]; either SHAM or HV rats, ICV", "value": "not significantly affected"}, {"measurement": "GP (glucose production)", "setting": "[4]; [7]", "value": "suppress GP"}, {"measurement": "blood glucose levels", "setting": "[4]; [7]", "value": "lower blood glucose levels"}, {"measurement": "Glucose", "setting": "[5]; HV, Clamp, systemic insulin 3 mU/Kg·min", "value": "8.1 ± 0.5", "unit": "mM"}, {"measurement": "suppression of GP (glucose production)", "setting": "[5]; HV", "value": "38±11", "unit": "%"}, {"measurement": "Direct", "setting": "[5]; HV", "value": "22.0 ± 2.3", "unit": "%"}, {"measurement": "% Indirect", "setting": "[5]; HV", "value": "60.7 ± 9.4", "unit": "%"}, {"measurement": "suppression of GP (glucose production)", "setting": "[5]; SHAM", "value": "80±8", "unit": "%"}, {"measurement": "Direct", "setting": "[5]; SHAM", "value": "22.8 ± 3.9", "unit": "%"}, {"measurement": "% Indirect", "setting": "[5]; SHAM", "value": "34.5 ± 6.7", "unit": "%"}, {"measurement": "rate of glucose infusion required to prevent hypoglycemia", "setting": "[2]", "value": "significant increases"}, {"measurement": "blood glucose levels", "setting": "[2]", "value": "reproduced the potent effects of ICV insulin or diazoxide"}, {"measurement": "GP (glucose production)", "setting": "[2]", "value": "reproduced the potent effects of ICV insulin or diazoxide"}]}]}
